Where two headings read alike, the source gives them in different places.
Assays:
human PI3Kα protein = target: T1, human PI3Kα protein (Homo sapiens, UniProt P42336); experiment: PI3Kα enzyme assay (ADP-Glo); type: biochemical; conditions: read-out: PI3Kα enzyme inhibitory activity
T1 construct: purchased Carna Biosciences, Inc; host or cells: baculovirus expression system
Summary of the method: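 Biotinylated human PI3Kα (baculovirus-expressed, 4.5 nmol/L) pre-incubated 15 min with compound in Tris-HCl pH 7.5, MgCl2, BSA; reaction 60 min at 25° C with 50 μmol/L PIP2 and 100 μmol/L ATP final. ADP quantified by ADP-Glo luminescence; IC50 calculated.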

[1] = target: T2, GST fusion human ERK2 protein (Homo sapiens, UniProt P28482); experiment: ERK2 enzyme assay (2); type: biochemical; conditions: read-out: ERK2 enzyme inhibitory activity (2)
T2 construct: purchased Carna Biosciences, Inc; host or cells: E. coli expression system
Summary of the method: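 IC50 values come from mobility-shift measurement of phosphorylated versus unphosphorylated 5-FAM peptide substrate after EDTA quench. Beforehand, compound and 1.25 nmol/L E. coli-expressed GST–human ERK2 stood 15 min at room temperature (pH 7.5), then 1 mmol/L ATP and 4.25 μmol/L substrate (final) were added for 120 min at 25 °C.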

T1 sequence (P42336 whole entry): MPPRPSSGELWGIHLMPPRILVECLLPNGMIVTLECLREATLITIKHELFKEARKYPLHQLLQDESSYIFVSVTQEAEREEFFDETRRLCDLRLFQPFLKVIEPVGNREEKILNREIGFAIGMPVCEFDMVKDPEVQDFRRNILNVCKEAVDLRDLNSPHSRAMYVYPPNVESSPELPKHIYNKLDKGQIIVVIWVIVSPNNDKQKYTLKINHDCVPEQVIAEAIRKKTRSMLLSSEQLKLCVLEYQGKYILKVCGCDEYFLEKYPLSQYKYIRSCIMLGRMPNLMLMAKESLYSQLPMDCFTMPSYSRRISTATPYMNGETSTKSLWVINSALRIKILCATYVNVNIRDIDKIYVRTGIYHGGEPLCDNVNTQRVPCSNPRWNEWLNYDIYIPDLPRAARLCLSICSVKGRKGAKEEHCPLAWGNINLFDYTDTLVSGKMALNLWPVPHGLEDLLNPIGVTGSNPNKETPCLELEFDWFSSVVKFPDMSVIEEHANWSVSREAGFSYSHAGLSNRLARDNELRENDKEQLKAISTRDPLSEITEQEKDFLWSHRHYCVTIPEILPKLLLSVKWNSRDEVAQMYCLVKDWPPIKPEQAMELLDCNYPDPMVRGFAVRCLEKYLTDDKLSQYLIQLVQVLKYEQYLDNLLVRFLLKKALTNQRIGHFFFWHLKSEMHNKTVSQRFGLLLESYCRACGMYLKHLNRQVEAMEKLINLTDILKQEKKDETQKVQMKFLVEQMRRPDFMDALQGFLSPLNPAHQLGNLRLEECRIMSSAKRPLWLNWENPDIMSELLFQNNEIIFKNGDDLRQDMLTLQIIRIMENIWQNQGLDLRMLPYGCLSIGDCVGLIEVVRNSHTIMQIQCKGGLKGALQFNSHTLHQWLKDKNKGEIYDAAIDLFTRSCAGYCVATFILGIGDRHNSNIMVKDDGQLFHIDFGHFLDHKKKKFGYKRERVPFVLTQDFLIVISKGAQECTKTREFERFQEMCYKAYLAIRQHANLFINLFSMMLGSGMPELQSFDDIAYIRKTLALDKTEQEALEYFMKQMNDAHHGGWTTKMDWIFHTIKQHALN
T1 sequence (P27986 whole entry partner): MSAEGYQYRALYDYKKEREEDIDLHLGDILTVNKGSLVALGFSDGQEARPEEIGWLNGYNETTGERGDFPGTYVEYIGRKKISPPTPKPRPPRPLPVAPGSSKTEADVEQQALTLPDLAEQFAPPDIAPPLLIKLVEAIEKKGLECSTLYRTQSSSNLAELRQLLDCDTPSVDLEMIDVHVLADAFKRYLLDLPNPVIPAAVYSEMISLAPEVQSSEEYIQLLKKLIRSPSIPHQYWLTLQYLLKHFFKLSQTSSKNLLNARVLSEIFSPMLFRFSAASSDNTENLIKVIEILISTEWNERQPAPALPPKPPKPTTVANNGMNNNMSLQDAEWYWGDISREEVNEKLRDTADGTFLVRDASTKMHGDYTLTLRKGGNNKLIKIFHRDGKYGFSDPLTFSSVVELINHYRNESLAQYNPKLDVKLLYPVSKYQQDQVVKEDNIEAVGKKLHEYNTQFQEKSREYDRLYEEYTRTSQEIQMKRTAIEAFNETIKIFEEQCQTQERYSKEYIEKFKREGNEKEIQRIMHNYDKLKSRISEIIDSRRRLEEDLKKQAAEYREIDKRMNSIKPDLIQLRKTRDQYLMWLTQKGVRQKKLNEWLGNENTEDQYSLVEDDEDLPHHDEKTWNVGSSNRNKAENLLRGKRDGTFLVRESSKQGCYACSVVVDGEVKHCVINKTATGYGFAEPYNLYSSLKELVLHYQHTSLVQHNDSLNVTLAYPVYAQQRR
T2 sequence (P28482 whole entry, the tested form may be a part): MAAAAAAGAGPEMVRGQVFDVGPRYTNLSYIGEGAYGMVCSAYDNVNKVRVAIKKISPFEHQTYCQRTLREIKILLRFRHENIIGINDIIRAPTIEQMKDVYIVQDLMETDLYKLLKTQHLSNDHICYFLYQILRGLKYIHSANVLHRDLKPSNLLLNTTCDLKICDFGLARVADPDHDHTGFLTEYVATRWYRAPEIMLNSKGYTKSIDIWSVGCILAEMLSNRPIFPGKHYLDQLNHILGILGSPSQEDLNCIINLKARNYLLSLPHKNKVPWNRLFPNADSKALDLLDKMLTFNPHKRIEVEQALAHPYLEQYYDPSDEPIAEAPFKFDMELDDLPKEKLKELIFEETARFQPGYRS

| SMILES | IC50 (human PI3Kα protein) | IC50 ([1]; ERK2 enzyme assay (2)) | IC50 [1] |
| --- | --- | --- | --- |
| CCOc1cnnc(Nc2ccc3ncc(-c4cnn(C)c4)cc3n2)c1 [Example 0499] | < 1000 nM | < 1000 nM |  |
| CC(C)c1cnnc(Nc2ccc3ncc(-c4cn(C)nc4C4CN(C(=O)OC(C)(C)C)C4)cc3n2)c1 [Example 0779, tert-butyl 3-(4-(6-((5-isopropylpyridazin-3-yl)amino)-1,5-naphthyridin-3-yl)-1-methyl-1H-pyrazol-3-yl)azetidine-1-carboxylate] | < 1000 nM | < 1000 nM |  |
| Cc1nn(C)cc1-c1cnc2ccc(Nc3cc(C4CCCCC4)cnn3)nc2c1 [Example 0926, N-(5-cyclohexylpyridazin-3-yl)-7-(1,3-dimethyl-1H-pyrazol-4-yl)-1,5-naphthyridine-2-amine] | < 1000 nM |  | < 1000 nM |
| CC(C)c1cnnc(Nc2ccc3ncc(-c4cn(C)nc4N4CCOCC4)cc3n2)c1 [Example 0844] | < 1000 nM | < 1000 nM |  |
| CC(C)c1cnnc(Nc2ccc3ncc(-c4cnn(CCCN5CC(OCCF)C5)c4)cc3n2)c1 [Example 0713, 7-(1-(3-(3-(2-Fluoroethoxy)azetidin-1-yl)propyl)-1H-pyrazol-4-yl)-N-(5-isopropylpyridazin-3-yl)-1,5-naphthyridine-2-amine] | < 1000 nM | < 1000 nM |  |
| CC(C)c1cnnc(Nc2ccc3ncc(-c4cnn(CCCN5CCN(c6ccncc6)CC5)c4)cc3n2)c1 [Example 0445] | < 1000 nM | < 1000 nM |  |
| CC(C)c1cnnc(Nc2ccc3ncc(-c4cnn(CCCN5CCOC(C)(C)C5)c4)cc3n2)c1 [Example 0658] | < 1000 nM | < 1000 nM |  |
| CC(C)c1cnnc(Nc2ccc3ncc(-c4cnn(CC(=O)N5CCOCC5)c4)cc3n2)c1 [Example 0558] | < 1000 nM | < 1000 nM |  |
| CC(C)c1cnnc(Nc2ccc3ncc(-c4cn(C)nc4C4CNC4)cc3n2)c1 [Example 0780, 7-(3-(azetidin-3-yl)-1-methyl-1H-pyrazol-4-yl)-N-(5-isopropylpyridazin-3-yl)-1,5-naphthyridine-2-amine] | < 1000 nM | < 1000 nM |  |
| COC[C@@H]1CCCN1c1cnc2ccc(Nc3cc(C(C)C)cnn3)nc2c1 [Example 0874] | < 1000 nM | < 1000 nM |  |
| CCCN(CCC)c1cnnc(Nc2ccc3ncc(-c4cnn(C)c4)cc3n2)c1 [Example 0523] | < 1000 nM | < 1000 nM |  |
| CC(C)c1cnnc(Nc2ccc3ncc(-c4cnn(C(C)c5ccccn5)c4)cc3n2)c1 (stereo not drawn) [Example 0414] | < 1000 nM | < 1000 nM |  |
| CC(C)c1cnnc(Nc2ccc3ncc(-c4cn(C)nc4NC4COC4)cc3n2)c1 [Example 0831] | < 1000 nM | < 1000 nM |  |
| CC(C)c1cnnc(Nc2ccc3ncc(N4CCC(C#N)C4)cc3n2)c1 (stereo not drawn) [Example 0897] | < 1000 nM | < 1000 nM |  |
| Cc1ccc(-c2nn(C)cc2-c2cnc3ccc(Nc4cc(C(C)C)cnn4)nc3c2)cc1 [Example 0767, N-(5-isopropylpyridazin-3-yl)-7-(1-methyl-3-(4-methylphenyl)-1H-pyrazol-4-yl)-1,5-naphthyridine-2-amine] | < 1000 nM | < 1000 nM |  |
| Cn1cc(-c2cnc3ccc(Nc4cc(C(C)(C)CO)cnn4)nc3c2)cn1 [Example 0560, 2-methyl-2-(6-((7-(1-methyl-1H-pyrazol-4-yl)-1,5-naphthyridin-2-yl)amino)pyridazin-4-yl)propan-1-ol] | < 1000 nM | < 1000 nM |  |
| CC(C)c1cnnc(Nc2ccc3ncc(-c4scnc4-c4cccnc4)cc3n2)c1 [Example 0578] | < 1000 nM | < 1000 nM |  |
| COC1(C)CN(CCCn2cc(-c3cnc4ccc(Nc5cc(C(C)C)cnn5)nc4c3)c(C)n2)C1 [Example 0797] | < 1000 nM | < 1000 nM |  |
| CCC(C)c1cnnc(Nc2ccc3ncc(-c4cnn(C)c4)cc3n2)c1 (stereo not drawn) [Example 0569] | < 1000 nM | < 1000 nM |  |
| Cc1cccc(Cn2cc(-c3cnc4ccc(Nc5cc(C(C)C)cnn5)nc4c3)cn2)n1 [Example 0411, N-(5-isopropylpyridazin-3-yl)-7-(1-((6-methylpyridin-2-yl)methyl)-1H-pyrazol-4-yl)-1,5-naphthyridine-2-amine] | < 1000 nM | < 1000 nM |  |
| CC(C)c1cnnc(Nc2ccc3ncc(-c4cnn(C[C@@H]5CCC(=O)N5)c4)cc3n2)c1 [Example 0556] | < 1000 nM | < 1000 nM |  |
| CC(C)c1cnnc(Nc2ccc3ncc(-c4cnn(CCC5CCOCC5)c4)cc3n2)c1 [Example 0483] | < 1000 nM | < 1000 nM |  |
| CO[C@H]1CCC[C@@H]1Nc1cnc2ccc(Nc3cc(C(C)C)cnn3)nc2c1 [Example 0894] | < 1000 nM | 1000 to 10000 nM |  |
| CC(=O)N1[C@H](C)CN(CCCn2cc(-c3cnc4ccc(Nc5cc(C(C)C)cnn5)nc4c3)cn2)C[C@@H]1C [Example 0435] | < 1000 nM | < 1000 nM |  |
| CC(C)c1cnnc(Nc2ccc3ncc(-c4cn(C)nc4COc4cccnn4)cc3n2)c1 [Example 0913, N-(5-isopropylpyridazin-3-yl)-7-(1-methyl-3-((pyridazin-3-yloxy)methyl)-1H-pyrazol-4-yl)-1,5-naphthyridine-2-amine] | < 1000 nM |  | < 1000 nM |
| CC(C)c1cnnc(Nc2ccc3ncc(N4CCC(C(F)(F)F)C4)cc3n2)c1 (stereo not drawn) [Example 0896] | 1000 to 10000 nM | 1000 to 10000 nM |  |
| CCOC(C)c1cnnc(Nc2ccc3ncc(-c4cnn(C)c4)cc3n2)c1 (stereo not drawn) [Example 0920] | < 1000 nM |  | < 1000 nM |

More lines, now with the values ahead:

| IC50 (human PI3Kα protein) | IC50 ([1]; ERK2 enzyme assay (2)) | IC50 [1] | SMILES |
| --- | --- | --- | --- |
| 1000 to 10000 nM | < 1000 nM |  | CC(C)c1cnnc(Nc2ccc3ncc(N4CC5(CCO5)C4)cc3n2)c1 [Example 0856] |
| < 1000 nM | < 1000 nM |  | COC(CN1CC(OC(F)F)C1)Cn1cc(-c2cnc3ccc(Nc4cc(C(C)C)cnn4)nc3c2)cn1 (stereo not drawn) [Example 0813, 7-(1-(3-(3-(Difluoromethoxy)azetidin-1-yl)-2-methoxypropyl)-1H-pyrazol-4-yl)-N-(5-isopropylpyridazin-3-yl)-1,5-naphthyridine-2-amine] |
| < 1000 nM | < 1000 nM |  | CC(C)c1cnnc(Nc2ccc3ncc(-c4cnn(CCF)c4)cc3n2)c1 [Example 0466] |
| < 1000 nM | < 1000 nM |  | CC(C)c1cnnc(Nc2ccc3ncc(-c4cnn(CC5CCN(C(=O)N6CCCCC6)CC5)c4)cc3n2)c1 [Example 0533] |
| < 1000 nM | < 1000 nM |  | CC(C)c1cnnc(Nc2ccc3ncc(-c4cn(C)nc4-c4ccccc4)cc3n2)c1 [Example 0579] |
| < 1000 nM | < 1000 nM |  | CC(C)c1cnnc(Nc2ccc3ncc(-c4cncs4)cc3n2)c1 [Example 0620] |
| < 1000 nM | < 1000 nM |  | CC(C)c1cnnc(Nc2ccc3ncc(-c4cnn(Cc5cscn5)c4)cc3n2)c1 [Example 0449] |
| 10000 to 50000 nM | 1000 to 10000 nM |  | Cc1ccnnc1Nc1ccc2ncc(-c3cnn(C)c3)cc2n1 [Example 0489] |
| < 1000 nM | < 1000 nM |  | CC(C)c1cnnc(Nc2ccc3ncc(-c4ccc(O)nc4)cc3n2)c1 [Example 0592] |
| 1000 to 10000 nM | < 1000 nM |  | CC(C)c1cnnc(Nc2ccc3ncc(NC4CN(C(=O)OC(C)(C)C)C4)cc3n2)c1 [Example 0891] |
| < 1000 nM | < 1000 nM |  | COC(CN1CC(F)C1)Cn1cc(-c2cnc3ccc(Nc4cc(C(C)C)cnn4)nc3c2)cn1 (stereo not drawn) [Example 0815, 7-(1-(3-(3-Fluoroazetidin-1-yl)-2-methoxypropyl)-1H-pyrazol-4-yl)-N-(5-isopropylpyridazin-3-yl)-1,5-naphthyridine-2-amine] |
| < 1000 nM | < 1000 nM |  | CC(C)c1cnnc(Nc2ccc3ncc(-c4cn(C)nc4Oc4ccccc4)cc3n2)c1 [Example 0820] |
| < 1000 nM |  | < 1000 nM | CC(C)c1cnnc(Nc2ccc3ncc(-c4cn(C)nc4CN4CCN(c5ccncc5)CC4)cc3n2)c1 [Example 0909] |
| < 1000 nM | < 1000 nM |  | CC(=O)Nc1ccc(Cn2cc(-c3cnc4ccc(Nc5cc(C(C)C)cnn5)nc4c3)cn2)cc1 [Example 0470, N-(4-((4-(6-((5-isopropylpyridazin-3-yl)amino)-1,5-naphthyridin-3-yl)-1H-pyrazol-1-yl)methyl)phenyl)acetamide] |
| < 1000 nM | < 1000 nM |  | CC(C)c1cnnc(Nc2ccc3ncc(-c4cn(C)nc4-c4cncnc4)cc3n2)c1 [Example 0553] |
| < 1000 nM |  | < 1000 nM | CCN(CC)c1nn(C)cc1-c1cnc2ccc(Nc3cc(C(C)C)cnn3)nc2c1 [Example 0944] |
| < 1000 nM | < 1000 nM |  | Cc1nn(C)cc1-c1cnc2ccc(Nc3cc(C4CCC4)cnn3)nc2c1 [Example 0791] |
| < 1000 nM | < 1000 nM |  | COc1cccc(-c2nn(C)cc2-c2cnc3ccc(Nc4cc(C(C)C)cnn4)nc3c2)c1 [Example 0452] |
| 1000 to 10000 nM | 1000 to 10000 nM |  | CC(C)c1cnnc(Nc2ccc3ncc(C4=CCN(C(=O)OC(C)(C)C)C4)cc3n2)c1 [Example 0892, tert-butyl 3-(6-((5-isopropylpyridazin-3-yl)amino)-1,5-naphthyridin-3-yl)-2,5-dihydro-1H-pyrrole-1-carboxylate] |
| < 1000 nM | < 1000 nM |  | COCCOc1cc(-c2nn(C)cc2-c2cnc3ccc(Nc4cc(C(C)C)cnn4)nc3c2)ccn1 [Example 0750, N-(5-isopropylpyridazin-3-yl)-7-(3-(2-(2-methoxyethoxyl)pyridin-4-yl)-1-methyl-1H-pyrazol-4-yl)-1,5-naphthyridine-2-amine] |
| < 1000 nM | < 1000 nM |  | CCn1cc(-c2cnc3ccc(Nc4cc(C(C)C)cnn4)nc3c2)c(-c2ccncc2)n1 [Example 0771] |
